Measurements: ChEMBL document CHEMBL1221220, “Transport and signaling via the amino acid binding site of the yeast Gap1 amino acid transceptor” (Nat Chem Biol, 2009)
Numbering of substitutions follows the chain as printed. Calls of active or inactive are those of the source. No cut-off for these calls is given here.

What was measured:
[1] = system: T1, General amino-acid permease GAP1 (Saccharomyces cerevisiae), P19145 [A403C]; experiment: Induction of yeast Gap1 A403C mutant-mediated trehalose activation at 10 mM
T1 sequence (whole entry): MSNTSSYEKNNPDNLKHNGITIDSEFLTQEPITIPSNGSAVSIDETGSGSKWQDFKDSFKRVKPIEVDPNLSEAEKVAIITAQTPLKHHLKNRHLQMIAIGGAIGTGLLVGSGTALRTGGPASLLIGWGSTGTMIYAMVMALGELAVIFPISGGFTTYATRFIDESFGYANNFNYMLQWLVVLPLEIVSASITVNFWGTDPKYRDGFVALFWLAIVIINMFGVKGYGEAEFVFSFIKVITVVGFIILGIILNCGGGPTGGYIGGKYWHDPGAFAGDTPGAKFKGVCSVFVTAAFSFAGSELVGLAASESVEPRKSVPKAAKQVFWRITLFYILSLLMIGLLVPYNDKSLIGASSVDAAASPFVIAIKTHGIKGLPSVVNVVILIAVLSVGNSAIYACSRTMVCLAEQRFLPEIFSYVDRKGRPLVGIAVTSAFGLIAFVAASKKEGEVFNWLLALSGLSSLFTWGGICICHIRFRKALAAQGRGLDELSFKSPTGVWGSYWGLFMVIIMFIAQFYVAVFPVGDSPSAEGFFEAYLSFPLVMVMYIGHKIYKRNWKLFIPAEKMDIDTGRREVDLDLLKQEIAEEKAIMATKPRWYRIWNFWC

[2] = system: T2, General amino-acid permease GAP1 (Saccharomyces cerevisiae), P19145 [A396C]; experiment: Activation of yeast Gap1 A396C mutant-mediated amino acid uptake at 10 mM
T2 sequence (whole entry): T1 sequence (whole entry) with A396C, C403A

[3] = system: T3, General amino-acid permease GAP1 (Saccharomyces cerevisiae), P19145 [L387C]; experiment: Induction of yeast Gap1 L387C mutant-mediated trehalose activation at 2 mM in presence of 10 mM MTSEA treated before compound addition
T3 sequence (whole entry): T1 sequence (whole entry) with L387C, C403A

[4] = system: T4, General amino-acid permease GAP1 (Saccharomyces cerevisiae), P19145 [M401C]; experiment: Induction of yeast Gap1 M401C mutant-mediated trehalose activation at 10 mM
T4 sequence (whole entry): T1 sequence (whole entry) with M401C, C403A

Activity [1]: inactive | Activity [2]: inactive | inhibition [3]: Active | Activity [4]: inactive
Structure (SMILES): NC(=O)NCCC[C@H](N)C(=O)O
